According to US9382204B2, “Inhibitors targeting the DNA-binding domain of human STAT3 for treatment of metastatic cancers” (Indiana University Research and Technology Corporation, priority 2013, dated 2016):

Test system: STAT3
Experiment: STAT3-dependent luciferase reporter assay in MDA-MB-231-STAT3 stable cells
Type: cell-based, human
Conditions: 20 μM; for Rel. luciferase activity (%) 1: experiment 1, relative to DMSO; for Rel. luciferase activity (%) 2: experiment 2, relative to DMSO; for Rel. luciferase activity (%) 3: experiment 3, relative to DMSO; for Rel. luciferase activity (%) Mean: mean of experiments, relative to DMSO; for inhibition of luciferase expression compared to DMSO vehicle control: significant = p value less than 0.05
Protocol: FIG. 12. Identification of active inS3-54 analogues. (A) Effects of inS3-54 analogues on STAT3-dependent luciferase expression. MDA-MB-231 cells with stable STAT3-dependent luciferase expression were treated with DMSO control, 20 μM inSTAT3-54 or its analogues (A1-A79), followed by measurement of luciferase activity. (*p<0.05; **p<0.01; ***p<0.001).
MDA-MB-231-STAT3 stable cell line with high level of STAT3-dependent luciferase expression was exposed to candidate compounds at 20 μM in DMSO for 48 hours based on previous studies, and luciferase activity was measured using a luciferase assay kit (Promega, USA), following manufacturer's instructions. The final DMSO concentration in this and following assays was 0.1% (vol/vol).

Compound | Rel. luciferase activity (%) 1 [%] | Rel. luciferase activity (%) 2 [%] | Rel. luciferase activity (%) 3 [%] | Rel. luciferase activity (%) Mean [%] | inhibition of luciferase expression compared to DMSO vehicle control
O=C(O)c1cccc(N2C(=O)C(=Cc3ccc(-c4cc(Cl)ccc4Cl)o3)C=C2c2ccccc2)c1 [Compound A2] | 120.3 | 107.5 | 114.1 | 114.0 | –
Cc1ccc(N2C(=O)C(=Cc3ccc(-c4cc(Cl)ccc4Cl)o3)C=C2c2ccccc2)cc1[N+](=O)[O-] [Compound A3] | 116.7 | 104.0 | 101.3 | 107.3 | –
Cc1ccc(N2C(=O)C(=Cc3ccc(-c4ccc([N+](=O)[O-])cc4)o3)C=C2c2ccccc2)cc1 [Compound A4] | 117.8 | 108.4 | 103.4 | 109.9 | –
Cc1ccc(N2C(=O)C(=Cc3ccc(-c4ccc([N+](=O)[O-])cc4)o3)C=C2c2ccccc2)cc1C [Compound A5] | 113.5 | 109.3 | 92.2 | 105.0 | –
O=C1C(=Cc2ccc(-c3ccc([N+](=O)[O-])cc3)o2)C=C(c2ccccc2)N1c1ccc(Cl)cc1 [Compound A6] | 110.9 | 112.7 | 71.0 | 98.2 | –
COc1ccc(N2C(=O)C(=Cc3ccc(-c4ccc([N+](=O)[O-])cc4)o3)C=C2c2ccccc2)cc1 [Compound A7] | 99.6 | 109.4 | 72.3 | 93.8 | –
CC(=O)c1cccc(N2C(=O)C(=Cc3ccc(-c4ccc([N+](=O)[O-])cc4)o3)C=C2c2ccccc2)c1 [Compound A8] | 71.9 | 102.6 | 57.5 | 77.3 | –
Cc1ccccc1N1C(=O)C(=Cc2ccc(-c3ccc([N+](=O)[O-])cc3)o2)C=C1c1ccccc1 [Compound A9] | 78.4 | 95.8 | 96.2 | 90.2 | –
O=C1C(=Cc2ccc(-c3ccc([N+](=O)[O-])cc3)o2)C=C(c2ccccc2)N1c1cccc(Cl)c1 [Compound A10] | 87.4 | 110.4 | 103.7 | 100.5 | –
O=C1C(=Cc2ccc(-c3ccc([N+](=O)[O-])cc3)o2)C=C(c2ccccc2)N1c1ccc(F)cc1 [Compound A11] | 73.5 | 101.5 | 91.7 | 88.9 | –
COc1cccc(N2C(=O)C(=Cc3ccc(-c4ccc([N+](=O)[O-])cc4)o3)C=C2c2ccccc2)c1 [Compound A12] | 34.2 | 105.8 | 55.4 | 65.1 | –
O=C1C(=Cc2ccc(-c3ccc([N+](=O)[O-])cc3)o2)C=C(c2ccccc2)N1c1ccccc1Cl [Compound A14] | 140.4 | 129.3 | 72.3 | 114.0 | –
O=C1C(=Cc2ccc(Cl)cc2)C=C(c2ccccc2)N1c1ccccc1 [Compound A15] | 98.4 | 99.9 | 60.1 | 86.1 | –
O=C1C(=Cc2ccc(Cl)cc2)C=C(c2ccccc2)N1c1ccc(Cl)cc1 [Compound A16] | 55.8 | 91.2 | 57.1 | 68.0 | –
COc1ccc(N2C(=O)C(=Cc3ccc(Cl)cc3)C=C2c2ccccc2)cc1 [Compound A17] | 103.2 | 120.5 | 104.2 | 109.3 | –
COC(=O)c1cccc(N2C(=O)C(=Cc3ccc(Cl)cc3)C=C2c2ccccc2)c1 [Compound A19] | 45.7 | 101.8 | 60.1 | 69.2 | –
O=C1C(=Cc2ccc(Cl)cc2)C=C(c2ccccc2)N1c1ccc(-c2ccccc2)cc1 [Compound A20] | 63.2 | 85.1 | 63.8 | 70.7 | significantly inhibited

Compound | Rel. luciferase activity (%) 1 [%] | Rel. luciferase activity (%) 2 [%] | Rel. luciferase activity (%) 3 [%] | Rel. luciferase activity (%) Mean [%] | inhibition of luciferase expression compared to DMSO vehicle control
CC(C)(C)c1ccc(N2C(=O)C(=Cc3ccc(Cl)cc3)C=C2c2ccccc2)cc1 [Compound A21] | 158.0 | 174.7 | 159.1 | 163.9 | –
O=C1C(=Cc2ccc(Cl)cc2)C=C(c2ccccc2)N1c1ccc(F)cc1 [Compound A22] | 97.9 | 114.0 | 61.1 | 91.0 | –
COC(=O)c1ccc(N2C(=O)C(=Cc3ccc(Cl)cc3)C=C2c2ccccc2)cc1 [Compound A23] | 99.2 | 103.2 | 69.4 | 90.6 | –
Cc1ccc(N2C(=O)C(=Cc3ccc(Cl)cc3)C=C2c2ccccc2)cc1[N+](=O)[O-] [Compound A25] | 74.6 | 124.2 | 87.8 | 95.6 | –
O=C1C(=Cc2ccc(Cl)cc2)C=C(c2ccccc2)N1c1ccccc1Cl [Compound A27] | 48.5 | 83.6 | 74.2 | 68.8 | significantly inhibited
O=C1C(=Cc2ccc(Cl)cc2)C=C(c2ccccc2)N1c1ccc(Nc2ccccc2)cc1 [Compound A28] | 67.2 | 106.0 | 62.1 | 78.4 | –
Cc1ccc(N2C(=O)C(=Cc3ccc([N+](=O)[O-])cc3)C=C2c2ccccc2)cc1C [Compound A29] | 100.7 | 170.4 | 113.3 | 128.1 | –
Cc1ccc(N2C(=O)C(=Cc3ccc([N+](=O)[O-])cc3)C=C2c2ccccc2)cc1C [Compound A30] | 89.6 | 83.9 | 61.2 | 78.2 | –
O=C1C(=Cc2ccc([N+](=O)[O-])cc2)C=C(c2ccccc2)N1c1ccc(Cl)cc1 [Compound A31] | 122.8 | 124.5 | 49.9 | 99.1 | –
COc1ccccc1N1C(=O)C(=Cc2ccc([N+](=O)[O-])cc2)C=C1c1ccccc1 [Compound A32] | 58.2 | 99.2 | 58.6 | 72.0 | –
COc1ccc(N2C(=O)C(=Cc3ccc([N+](=O)[O-])cc3)C=C2c2ccccc2)cc1 [Compound A33] | 33.8 | 92.3 | 99.1 | 75.1 | –
COC(=O)c1cccc(N2C(=O)C(=Cc3ccc([N+](=O)[O-])cc3)C=C2c2ccccc2)c1 [Compound A34] | 61.1 | 103.6 | 80.8 | 81.9 | –
O=C1C(=Cc2ccc([N+](=O)[O-])cc2)C=C(c2ccccc2)N1c1ccc(-c2ccccc2)cc1 [Compound A35] | 51.3 | 109.5 | 112.6 | 91.1 | –
O=C1C(=Cc2ccc([N+](=O)[O-])cc2)C=C(c2ccccc2)N1Cc1ccccc1 [Compound A36] | 46.4 | 87.4 | 66.3 | 66.7 | significantly inhibited
O=C1C(=Cc2ccc([N+](=O)[O-])cc2)C=C(c2ccccc2)N1c1cccc(Cl)c1 [Compound A38] | 66.5 | 119.9 | 88.8 | 91.8 | –
O=C1C(=Cc2ccc([N+](=O)[O-])cc2)C=C(c2ccccc2)N1c1ccc(Cl)c(Cl)c1 [Compound A39] | 119.6 | 129.6 | 65.9 | 105.1 | –
O=C1C(=Cc2ccc([N+](=O)[O-])cc2)C=C(c2ccccc2)N1c1ccc(F)cc1 [Compound A40] | 126.5 | 101.5 | 43.0 | 90.3 | –
